The text below walks through data of PMC4456360, “A Recombinant Fungal Lectin for Labeling Truncated Glycans on Human Cancer Cells” (PLoS ONE, 2015).

Experiment [1] addresses T1, rPVL (Lacrymaria velutina (Psathyrella velutina), UniProt Q309D1).
T1 sequence (Q309D1 1-395): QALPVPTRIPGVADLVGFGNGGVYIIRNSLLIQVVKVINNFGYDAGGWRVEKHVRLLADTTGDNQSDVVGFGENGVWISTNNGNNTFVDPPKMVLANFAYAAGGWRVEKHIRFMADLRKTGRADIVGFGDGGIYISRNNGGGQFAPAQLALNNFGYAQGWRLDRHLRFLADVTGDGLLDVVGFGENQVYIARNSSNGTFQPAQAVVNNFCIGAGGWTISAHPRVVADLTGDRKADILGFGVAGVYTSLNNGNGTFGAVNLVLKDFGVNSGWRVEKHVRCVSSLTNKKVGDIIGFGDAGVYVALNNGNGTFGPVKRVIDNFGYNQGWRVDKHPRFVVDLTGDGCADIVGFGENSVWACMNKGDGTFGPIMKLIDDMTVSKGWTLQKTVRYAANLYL
Kind of experiment: Surface plasmon resonance, oligosaccharides injected over rPVL-coated CM5 chip. It counts as binding. Conditions: 25°C, rPVL immobilized on chip; for Kd: read-out: SPR Kd. As for the experimental part:
All SPR experiments were performed on a Biacore X100 instrument (GE Healthcare) at 25°C in HBS (10 mM Hepes/NaOH, pH 7.5, 150 mM NaCl, 0.05% Tween 20) supplemented with 100 μM of CaCl2 at a flow rate of 30 μl min^-1. Binding was measured as resonance units over time after blank subtraction, and data were then evaluated by using the Biacore X100 evaluation software, version 2.0. Dissociation constants were determined by plotting response at equilibrium (Req, 10 s before the end of injection) against analyte concentration. For protein coated chip, 3500 resonance units of rPVL (100 μg ml^-1, 10 mM acetate buffer pH 6.2) have been immobilized on flow channel 2 of a research grade CM5 chip using standard amine coupling procedures. Flow channel 1 has been activated/deactivated. Experiments consist of injection (association 360 s, dissociation 400 s) of various concentrations of oligosaccharides (2 fold cascade dilutions, from 0 to 10 μM) on both channels.
Background: SPR reads the build-up and loss of mass on a sensor chip optically.

The target in experiment [2] is T1, rPVL. The experiment can be described thus: Titration microcalorimetry (ITC), rPVL in solution. The class given is binding. Conditions: for ITC -∆H / ITC T∆S / ITC n (number of binding sites per monomer) / Kd: 25°C; for Kd: rPVL in solution; for ITC n: stoichiometry value fixed during fitting procedure. As for the experimental part:
Recombinant lyophilized rPVL was dissolved in buffer (20 mM Tris/HCl, pH 7.5, NaCl 150 mM, 100 μM CaCl2) and degassed. The protein concentration was checked by measuring A280 by using a theoretical molar extinction coefficient of 65,890 M^-1 cm^-1. Carbohydrate ligands were dissolved in the same buffer, degassed, and loaded in the injection syringe. ITC was performed with a ITC200 microcalorimeter (GE Healthcare). The rPVL solution was placed in a 200 μl sample cell at 25°C. Titration was performed with 20 injections of 2 μl carbohydrate ligands every 120 s. The experimental data were fitted to a theoretical titration curve using Origin software supplied by GE Healthcare, with ΔH (enthalpy change), Ka (association constant) and n (number of binding sites per monomer) as adjustable parameters. Free energy change (ΔG) and entropy contributions (TΔS) were derived from the equation ΔG = ΔH – TΔS = —RT ln Ka (with T as the absolute temperature and R = 8.314 J mol^-1 K^-1). Two independent titrations were performed for each tested ligand.

Experiment [3] has as its target T1, rPVL. The experiment can be described thus: Thermal shift analysis of rPVL with glycan ligands. It counts as binding. As for the experimental part:
Thermal shift assays were performed using a Mini Opticon, Real Time PCR machine (Bio-Rad Laboratories) with 0.5 mg ml^-1 of protein diluted in 100 mM NaCl, 20 mM Tris pH 7.5, 100 μM CaCl2, with or without oligosaccharide in a total reaction volume of 25 μl. SYPRO Orange (Molecular Probes, CA) was used as a fluorescent probe detected at 530 nm. The temperature was raised using 1°C/minute steps from 25°C to 100°C and fluorescence readings were taken at each interval. […] A minimum of two independent measurements were performed for each condition

In experiment [4] the target is T1, rPVL. The experiment can be described thus: Glycan array (CFG Mammalian Printed Array version 5.1). It counts as binding. Conditions: Alexa Fluor 488 labeled rPVL. The text has this:
Purified rPVL were labeled with Alexa Fluor 488 (Invitrogen) according to the manufacturer’s instructions and repurified on a D-Salt polyacrylamide desalting column (Pierce). Alexa-labeled rPVL was used for glycan array screening with the standard procedure of the Protein-Glycan Interaction Core (H) of the Consortium for Functional Glycomics.

For experiment [5], the target named is native PVL. Also on record: method as in PMID 16497330. Particulars: ITC, native PVL isolated from mushroom; cited from earlier work. A general note: ITC needs no label: the signal is the heat of the interaction.

“And” between values parts separate entries of the source, which are not always exact repeats. Equal entries are not always repeated. Marks after values point to notes of the source that are not given here.

The Kd is the concentration at which binding is half-saturated. As to `CC(=O)N[C@H]1[C@H](O[C@H]2[C@@H](O)[C@@H](CO)O[C@@H](O[C@H]3[C@H](O)[C@@H](O)C(O)O[C@@H]3CO)[C@@H]2O)O[C@H](CO)[C@@H](O)[C@@H]1O` (some centres unmarked) [GlcNAcβ1-3Galβ1-4Glc (LNT2), GlcNAcβ1-3Galβ1-4Glc], in experiment [1] (listed as lacto-N-triose), the equilibrium dissociation constant (Kd) is roughly 70 µM. Moreover, the equilibrium dissociation constant (Kd) in experiment [1] amounted to 71 µM. Moreover, in experiment [2], the “ITC -∆H” value amounted to 41.7 kJ/mol, the “ITC T∆S” value is -19.1 kJ/mol, the “ITC n (number of binding sites per monomer)” value was determined as 5.0 ± 0.2 and the equilibrium dissociation constant (Kd) turned out to be 108 µM.

Take `CC(=O)N[C@H]1[C@H](O[C@H]2[C@@H](O)[C@@H](CO)OC(O)[C@@H]2O)O[C@H](CO)[C@@H](O)[C@@H]1O` (some centres unmarked) [GlcNAcβ1-3Gal]: the Kd in experiment [1] worked out at 103 µM. In addition, in experiment [2], the “ITC -∆H” value amounted to 42.1 kJ/mol, the “ITC T∆S” value was -19.5 kJ/mol and binding was characterised by a dissociation constant (Kd) of 110 µM. In experiment [3], the “Tm of rPVL in the presence of ligand” value amounted to 60 °C.

Regarding `CC(=O)N[C@H]1[C@H](O[C@H]2[C@H](O)[C@@H](NC(C)=O)[C@H](O[C@H]3[C@H](O)[C@@H](NC(C)=O)C(O)O[C@@H]3CO)O[C@@H]2CO)O[C@H](CO)[C@@H](O[C@@H]2O[C@H](CO)[C@@H](O[C@@H]3O[C@H](CO)[C@@H](O)[C@H](O)[C@H]3NC(C)=O)[C@H](O)[C@H]2NC(C)=O)[C@@H]1O` (stereo partly drawn) [GlcNAc(β1-4GlcNAc)4, GlcNAcβ1-4GlcNAcβ1-4GlcNAcβ1-4GlcNAcβ1-4GlcNAc], in experiment [1], the dissociation constant (Kd) came to 358 µM.

Turning to `CC(=O)N[C@H]1[C@H](O[C@H]2[C@@H](O)[C@@H](CO)OC(O)[C@@H]2NC(C)=O)O[C@H](CO)[C@H](O)[C@@H]1O` (some centres unmarked) [GalNAcβ1-3GalNAc], the “binding of rPVL on glycan array (in words)” value in experiment [4] is on record as “minor intensity”.

For the molecule `O=C[C@H](O)[C@@H](O)[C@@H](O)[C@H](O)CO` [galactose], the “stabilization of rPVL by carbohydrate (in words)” value in experiment [3] was “non-binding”.

`CC(=O)N[C@H]1[C@H](O[C@H]2[C@H](O)[C@@H](NC(C)=O)C(O)O[C@@H]2CO)O[C@H](CO)[C@@H](O)[C@@H]1O` (some centres unmarked) [GlcNAcβ1-4GlcNAc]: the equilibrium dissociation constant (Kd) in experiment [1] came out at 205 µM. In addition, in experiment [4], the “binding of rPVL on glycan array (in words)” value was “only weakly”. In experiment [2], the “ITC -∆H” value is given as 36.9 kJ/mol, the “ITC T∆S” value was -14.6 kJ/mol, the dissociation constant Kd turned out to be 122 µM and the ITC n is 5.0 ^b. Besides, the “Tm of rPVL in the presence of ligand” value in experiment [3] worked out at 60 °C.

Turning to `CC(=O)N[C@@H]1[C@@H](O)[C@H](O)[C@@H](CO)O[C@H]1O` [GlcNAc, N-acetylglucosamine], the dissociation constant (Kd) in experiment [1] was found to be 132 µM. Moreover, in experiment [2], the “ITC -∆H” value amounted to 41.2 kJ/mol, the “ITC T∆S” value is recorded as -18.0 kJ/mol, binding was characterised by a dissociation constant (Kd) of 124 µM and the ITC n is 5.0 ^b. For the same molecule, the Kd in experiment [5] was roughly 200 µM.

As for `CC(=O)N[C@@H]1[C@@H](O)[C@H](O[C@@H]2O[C@H](CO)[C@@H](O[C@@H]3O[C@H](CO[C@H]4O[C@H](CO)[C@@H](O)[C@H](O)[C@@H]4O[C@@H]4O[C@H](CO)[C@@H](O)[C@H](O)[C@H]4NC(C)=O)[C@@H](O)[C@H](O[C@H]4O[C@H](CO)[C@@H](O)[C@H](O)[C@@H]4O[C@@H]4O[C@H](CO)[C@@H](O)[C@H](O)[C@H]4NC(C)=O)[C@@H]3O)[C@H](O)[C@H]2NC(C)=O)[C@@H](CO)O[C@H]1N=[N+]=[N-]` [Biantennary N-glycan (2)], in experiment [1], the dissociation constant Kd amounted to 179 µM. In experiment [2], the “ITC -∆H” value was found to be 13.7 kJ/mol; the “ITC T∆S” value is given as 11.8 kJ/mol; the “ITC n (number of binding sites per monomer)” value is on record as 1.9 ± 0.6; the Kd is 34 µM and 34.4 µM. Also, the “ITC n (number of binding sites per monomer)” value in experiment [2] (listed as biantennary heptasaccharide) is “two”.

Consider `OC[C@H]1O[C@@](CO)(O[C@H]2O[C@H](CO)[C@@H](O)[C@H](O)[C@H]2O)[C@@H](O)[C@@H]1O` [sucrose], for which the “stabilization of rPVL by carbohydrate (in words)” value in experiment [3] is given as “non-binding”.

As to “Galβ1-3GlcNAcβ1-3Galβ1-4Glc [Galβ1-3GlcNAcβ1-3Galβ1-4Glc (LNT)]”, in experiment [1], the “SPR Kd” value was “No binding”.
